Results on 4 compounds are retold here after patent US4749687A, “Renin inhibitors containing statine or derivatives thereof” (Pfizer Inc., priority 1985, dated 1988).

Structures can show the parent of a compound that is named as a salt. Where a SMILES comes first, the peptide text is derived from it.

The experiment deals with T1, renin (Homo sapiens, UniProt P00797).
T1 construct: Blood plasma was obtained from healthy laboratory personnel, pooled and stored frozen until required; from tissue; host or cells: pooled human blood plasma (supernatant after centrifugation)
T1 sequence (P00797 67-406): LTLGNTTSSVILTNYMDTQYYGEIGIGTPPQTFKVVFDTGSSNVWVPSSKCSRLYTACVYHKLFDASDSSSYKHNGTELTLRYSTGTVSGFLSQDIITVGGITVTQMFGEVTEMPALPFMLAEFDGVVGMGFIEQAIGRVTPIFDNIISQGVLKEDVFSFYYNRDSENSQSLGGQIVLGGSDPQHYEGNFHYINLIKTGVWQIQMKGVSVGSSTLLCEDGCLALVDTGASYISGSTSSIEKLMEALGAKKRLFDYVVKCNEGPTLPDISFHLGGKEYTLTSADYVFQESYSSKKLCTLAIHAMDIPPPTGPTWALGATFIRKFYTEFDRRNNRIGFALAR
Description: Inhibition of the angiotensinogen-cleaving activity of renin in vitro (plasma, angiotensin I radioimmunoassay). Type of experiment: biochemical. The note with it: pooled blood plasma from healthy laboratory personnel, pH 7.4, incubated three hours at 37° C., angiotensin I by radioimmunoassay; read-out: IC50 (inhibitor concentration required to produce a fifty percent inhibition of the angiotensinogen-cleaving activity of renin). The protocol:
Blood plasma was obtained from healthy laboratory personnel, pooled and stored frozen until required. Before use, a quantity of this plasma was defrosted and centrifuged, and the supernatant mixed with protease inhibitors and buffered to pH 7.4. Renin inhibitors were added at different levels to different aliquots of the plasma supernatant, and the resulting mixtures (310 lambda) incubated for three hours at 37° C. along with renin inhibitor-free control mixtures. After incubation, the mixtures were quenched in ice water and each assayed for angiotensin I using angiotensin I antibody. The production of angiotensin I in the presence of a renin inhibitor was compared to that produced in the absence of the inhibitor, and a percentage inhibition was calculated. Using data obtained from duplicate incubations at each of several different inhibitor concentrations, the inhibitor concentration in the incubation mixture required to produce a fifty percent inhibition of the angiotensinogen-cleaving activity of renin, i.e. the IC50 of the inhibitor, was calculated for various different inhibitors.
The angiotensin I in the quenched incubation mixtures was assayed by means of a radioimmunoassay, using components of a renin radioimmunoassay kit supplied by Becton Dickinson and Co. (Orangeburg, N.Y.). This radioimmunoassay was based upon the one developed by Haber et al., J. Clin. Endocrinol., 29, pp. 1349-1355 (1969).
For the compound `CC(C)(C)OC(=O)N[C@@H](Cc1ccccc1)C(=O)N[C@@H](Cc1c[nH]cn1)C(=O)N[C@@H](CC1CCCCC1)[C@@H](O)CC(=O)N[C@@H](CCCCN)C(=O)N[C@@H](Cc1ccccc1)C(=O)O` [Example 9, [N-(t-butyloxycarbonyl)-Phe]-His-Cyclostatine-Lys-Phe] (HELM PEPTIDE1{[CC(C)(C)OC(=O)[*:2]].F.H.[O=C(C[C@H](O)[C@H](CC1CCCCC1)N[*:1])[*:2]].K.F}$$$$V2.0), the IC50 is less than 4 µM.
Take `CC(C)(C)OC(=O)N1CCC[C@H]1C(=O)N[C@@H](Cc1ccccc1)C(=O)N[C@@H](Cc1c[nH]cn1)C(=O)N[C@@H](CC1CCCCC1)[C@@H](O)CC(=O)N[C@@H](CCCCN)C(=O)N[C@@H](Cc1ccccc1)C(=O)O` [Example 10, [N-(t-butyloxycarbonyl)-Pro]-Phe-His-CyclostatineLys-Phe] (HELM PEPTIDE1{[CC(C)(C)OC(=O)[*:2]].P.F.H.[O=C(C[C@H](O)[C@H](CC1CCCCC1)N[*:1])[*:2]].K.F}$$$$V2.0): the IC50 was less than 4 µM.
In the case of `CC[C@H](C)[C@@H](CN[C@@H](Cc1ccccc1)C(=O)O)NC(=O)C[C@H](O)[C@H](CC1CCCCC1)NC(=O)[C@H](Cc1c[nH]cn1)NC(=O)[C@H](Cc1ccccc1)NC(=O)OC(C)(C)C` [Example 11, [N-(t-butyloxycarbonyl)-Phe]-His-Cyclostatine-[Amino(2-secbutyl-ethylene)]-Phe Acetic Acid Salt], the IC50 was less than 4 µM.
As to “[N-(t-butyloxycarbonyl)-Phe]-His-Aminostatine-Ile-Phe Diacetate [Example 5]”, the IC50 was less than 4 µM.
